Experimental data: patent US20220257596A1, “METHODS FOR TREATING MEIBOMIAN GLAND DYSFUNCTION WITH LIVER X RECEPTOR AGONISTS” (Novartis AG, priority 2019, published 2022)

Experiments:
[1] = system: SZ95 (immortalized human sebaceous gland cells) cells; test: Sentinel lipid assay (desaturation index in SZ95 sebocytes); assay type: cell-based; settings: for EC50: SZ95 cells, 72h incubation, top concentration 10 μM, desaturation index, read-out: SLA EC50; for Emax: percent compared to the reference compound (Compound H), 72h, read-out: SLA Amax
Method: SZ95 (immortalized human sebaceous gland cells) cells were seeded in Greiner bio-one 96-well polypropylene plates that were pre-treated with 50 μg/ml Human Plasma Fibronectin (Thermo Fisher Scientific) at a density of 10^4 cells/135 μl. Cells were incubated in a humidified incubator with 5% CO2 at 37° C. overnight. Test compounds were diluted at a ratio of 1:3 and added to cells at final concentrations starting from 10 μM. Compound H was used as a positive control reference compound in each plate. Cells in the assay plate were incubated in a humidified incubator with 5% CO2 at 37° C. for 72h.
Culture medium was removed from the cells and cells in culture plates were washed with ice cold phosphate buffered saline three times. Plates were heat sealed and stored in a −80° C. freezer prior to Sentinel lipid assay.
Sentinel lipid assay: The sentinel lipid assay was used quantify the change in the global desaturation index in SZ95 sebocytes upon administration of LXR agonist compounds. The assay measures a smaller subset of lipid analytes in […] (termed “sentinel lipids”) which would model the global changes the population of both saturated and desaturated lipids in the cells. In order to define this smaller subset of lipids, a complete lipid profile was recorded on dose response curves (eight levels from 4 nM to 10 uM) of Compounds A-N. An elastic net regression model was applied separately to both the saturated and desaturated lipids to determine the minimum combination of coefficients and analytes which could be used to adequately model the total population of lipids. The elastic net model was able to reduce the behavior of 425 lipids to 11 lipids and the correlation between the desaturation indices observed using the complete set of lipids with from the 11 sentinel lipids was 0.96.
A medium throughput assay was created using this reduced set of sentinel lipids. A single batch is defined as triplicate examples of three unique plates (i.e., a single batch of cells is used to create nine plates for LC-MSMS analysis). Lipids were extracted from the cells using a 1:1 mixture of methylene chloride/methanol containing 10 nM of deuterated standards of triglycerides, which are used as internal standards for quantitating the lipid abundance. The lipids were separated prior to mass spectrometric analysis using a five minute HPLC gradient. The abundance of the sentinel lipids and the internal standards are measured using multiple reaction monitor mode (MRM) on a triple quadrupole mass spectrometer. The data was transformed from total ion current to nmoles/10^6 cells, which are multiplied by the coefficients from the elastic net model to determine the effective desaturated and saturated content, and therein the desaturation index of the dosed cells. In order to compare compounds from multiple batches with one another, the measure raw desaturation index was normalized by dividing it by the desaturation index of the DMSO dosed cells, and all data was assessed as the fraction by which the compound increases the desaturation index above 1. The Amax value refers to the percent […] of the tested compound compared to the reference compound.

[2] = system: SCD1 protein production in SZ95-SCD1-HiBit cells; test: Measurement of SCD1 expression in SZ95-SCD1-HiBit cells (HiBiT assay); assay type: cell-based; settings: Homo sapiens; for EC50: SZ95-SCD1-HiBit cells, 48h incubation, top concentration 18 μM; for Emax: percent compared to the reference compound (Compound H), 48h, read-out: HiBit Amax
Method: SZ95-SCD1-HiBit cells were seeded in 384-well cell culture white plates at a density of 3000 cells/30 ul. Water is added to edge wells to avoid evaporation. Cells were incubated in a humidified incubator with 5% CO2 at 37° C. overnight. Tested compounds were diluted at a ratio of 1:3 using Agilent BRAVO Automated Liquid Handling Platform and added to cells at final concentrations starting from 18 μM. Compound H was used as a reference compound in each plate. Cells in the assay plate were incubated in a humidified incubator with 5% CO2 at 37° C. for 48h.
The assay plates were removed from the incubator and allowed to equilibrate to room temperature. Nano-Glo® HiBiT Detection Reagent (Promega; a mixture of Nano-Glo HiBiT Detection Buffer, Nano-Glo HiBiT Detection Substrate, and LgBiT protein) was added into assay plates, at a volume equal to cell culture medium in each well. Plates were placed on an orbital shaker at a speed of 300-600 rpm for 10 min at room temperature, and read on an EnVision Plate Reader using luminescence detection with a 1 second read time.
The assay measures the increase in SCD1 protein production in vitro. Amax refers to the percent […] of the tested compound compared to the reference compound.

[3] = In vivo measurement of lowered meibum melting temperature (DSC); design: species or system Sprague Dawley rats; settings: for Change of Tm: compound versus vehicle, rat meibum, DSC (method gives °C); for Mean ± SEM of Compound (meibum melting temperature): naive Sprague Dawley rats, 1% compound, DSC peak temperature (method gives °C), in °C; for Meibum melting temperature, in words: rat eyes, concentration of 1%, in comparison to vehicle
Method: For specific compounds Compound B and Compound C, the lowering of rat meibum melting temperature was measured in naive Sprague Dawley rats. The test animals were administered either vehicle or Compound B or Compound C, the meibum collected upon administration of the compounds was analyzed by differential scanning calorimetry to measure the melting point. The lowering of meibum melting point in rats administered Compound B or Compound C were compared to vehicle.
Melting properties of meibum were obtained using differential scanning calorimetry thermograms, recorded on a TA Discovery Q5000 (ThermoAnalytical). Samples were sealed in standard 40 μl aluminum pans and subjected to a heat-cool-heat cycle with melting temperatures being recorded on the second heating ramp. The samples were first heated to 150° C. at 30K/min then cooled −30° C. at 30K/min. Next, the sample was heated to 75° C. with an underlying heating rate of 2K/min, a period of modulation of 60 seconds and a temperature amplitude of modulation of 1° C. Dry N2 gas, at a flow rate of 50 mL/min was used to purge the DSC equipment during the measurement. Onset of melting and peak temperatures were recorded with peak temperature quoted as the melting point.
Results from the assay are shown Table 3 and in FIGS. 1 and 2. Results were analyzed using an unpaired t test with Welch's correction.

Row | SMILES | EC50 [1] [nM] | Emax [1] [%] | EC50 [2] [nM] | Emax [2] [%] | Change of Tm [3] | Mean ± SEM of Compound (meibum melting temperature) [3] | Meibum melting temperature, in words [3]
1 | O=C(O)Cn1ccc2c(OCCCN(Cc3cccc(C(F)(F)F)c3Cl)CC(c3ccccc3)c3ccccc3)cccc21 [Compound A, 2-(4-(3-((2-chloro-3-(trifluoromethyl)benzyl)(2,2-diphenylethyl)amino)propoxy)-1H-indol-1-yl)acetic acid] | 7.3 | 104 | 4.9 | 94 |  |  | 
2 | CC(C)(C)N1C(=O)C(Nc2ccc(N3CCCCC3)cc2)=C(c2ccccc2)S1(=O)=O [Compound B, 2-(tert-butyl)-5-phenyl-4-((4-(piperidin-1-yl)phenyl)amino)isothiazol-3(2H)-one 1,1-dioxide] | 168 | 92 | 1.8 | 64 | −1.534 ± 0.3522 | 29.1 ± 0.2363 | decrease in meibum melting temperature
3 | C[C@H](CCOc1cccc(C(C)(C)C(=O)O)c1)N(Cc1cccc(C(F)(F)F)c1Cl)CC(c1ccccc1)c1ccccc1 [Compound C, (R)-2-(3-(3-((2-chloro-3-(trifluoromethyl)benzyl)(2,2-diphenylethyl)amino)butoxy)phenyl)-2-methylpropanoic acid] | 5.5 | 90.7 | 0.9 | 69.9 | −1.513 ± 0.6575 | 30.68 ± 0.6065 | decrease in meibum melting temperature
4 | CC(C)[C@@H]1CN(c2ccc(CO)c(S(C)(=O)=O)c2)CCN1c1ncc(CO)c(C(F)(F)F)n1 [Compound D, (R)-(2-(4-(4-(hydroxymethyl)-3-(methylsulfonyl)phenyl)-2-isopropylpiperazin-1-yl)-4-(trifluoromethyl)pyrimidin-5-yl)methanol] | 41.8 | 65.6 | 2 | 66.2 |  |  | 
5 | CCCc1c(OCCCN(C)c2cnc(CC(=O)O)cn2)ccc2c(C(F)(F)F)noc12 [Compound E, 2-(5-(methyl(3-((7-propyl-3-(trifluoromethyl)benzo[d]isoxazol-6-yl)oxy)propyl)amino)pyrazin-2-yl)acetic acid] | 69 | 81.8 | 29.4 | 77.9 |  |  | 
6 | O=S(=O)(c1ccccc1)N(CC(F)(F)F)c1ccc(C(O)(C(F)(F)F)C(F)(F)F)cc1 [Compound F, N-(4-(1,1,1,3,3,3-hexafluoro-2-hydroxypropan-2-yl)phenyl)-N-(2,2,2-trifluoroethyl)benzenesulfonamide] | 190 | 89.8 | 47.4 | 76.1 |  |  | 
7 | O=C(O)Cc1cccc(OCCCN(Cc2cccc(C(F)(F)F)c2Cl)CC(c2ccccc2)c2ccccc2)c1 [Compound H, 2-(3-(3-((2-chloro-3-(trifluoromethyl)benzyl)(2,2-diphenylethyl)amino)propoxy)phenyl)acetic acid] | 88.1 | 97.4 | 113 | 92 |  |  | 
8 | CC(C)(O)c1cn(-c2ccc(-c3cc(F)c(CO)c(S(C)(=O)=O)c3)cc2F)c(C(C)(C)c2c(Cl)cccc2Cl)n1 [Compound I, 2-(2-(2-(2,6-dichlorophenyl)propan-2-yl)-1-(3,3′-difluoro-4′-(hydroxymethyl)-5′-(methylsulfonyl)-[1,1′-biphenyl]-4-yl)-1H-imidazol-4-yl)propan-2-ol] | 4520 | 60.2 | > 18000 | 43.3 |  |  | 
9 | CCN(Cc1ccccc1)c1ccc(C(O)(C(F)(F)F)C(F)(F)F)cc1Cl [Compound J, 2-(4-(benzyl(ethyl)amino)-3-chlorophenyl)-1,1,1,3,3,3-hexafluoropropan-2-ol] | 1470 | 58 | 323 | 77.5 |  |  | 
10 | CN(C)C(=O)c1ccc(-c2cnc(N3CCN(C(=O)C(C)(C)c4ccccc4)CC3)c(C#N)c2)cc1Cl [Compound K, 2-chloro-4-(5-cyano-6-(4-(2-methyl-2-phenylpropanoyl)piperazin-1-yl)pyridin-3-yl)-N,N-dimethylbenzamide] | 458 | 151 | 538 | 66 |  |  | 
11 | Fc1ccc(-c2c3cccc(C(F)(F)F)c3nn2Cc2ccc(F)cc2Cl)cc1 [Compound L, 2-(2-chloro-4-fluorobenzyl)-3-(4-fluorophenyl)-7-(trifluoromethyl)-2H-indazole] | > 10000 | 33.3 | > 18000 | 48.4 |  |  | 
12 | CN(C)C(=O)c1ccc(N2CCC(C3CCN(S(=O)(=O)c4ccccc4Cl)CC3)CC2)cc1Cl [Compound M, 2-chloro-4-(1′-((2-chlorophenyl)sulfonyl)-[4,4′-bipiperidin]-1-yl)-N,N-dimethylbenzamide] | > 10000 | 29.2 | > 18000 | 39.1 |  |  | 
13 | CC(C)[C@@H]1c2nc3cc(CO)c(S(C)(=O)=O)cc3n2CCN1c1ncc(C(C)(C)O)c(C(F)(F)F)n1 [Compound N, (R)-2-(2-(8-(hydroxymethyl)-1-isopropyl-7-(methylsulfonyl)-3,4-dihydrobenzo[4,5]imidazo[1,2-a]pyrazin-2(1H)-yl)-4-(trifluoromethyl)pyrimidin-5-yl)propan-2-ol] | 52 | 165 | 4 | 72.4 |  |  | 
